Assay results as given in article PMC10092844, “Inhibition profile of trifludimoxazin towards PPO2 target site mutations” (Pest Management Science, 2022).
Positions count from the first letter of the chain named. pIC50: −log10 of the molar value.

What was measured:
PPO2 G399A = target: T1, PPO2 G399A (Amaranthus tuberculatus, UniProt Q0NZW9, G398A); assay: biochemical; assay type: biochemical
T1 sequence (Q0NZW9 31-534 G398A): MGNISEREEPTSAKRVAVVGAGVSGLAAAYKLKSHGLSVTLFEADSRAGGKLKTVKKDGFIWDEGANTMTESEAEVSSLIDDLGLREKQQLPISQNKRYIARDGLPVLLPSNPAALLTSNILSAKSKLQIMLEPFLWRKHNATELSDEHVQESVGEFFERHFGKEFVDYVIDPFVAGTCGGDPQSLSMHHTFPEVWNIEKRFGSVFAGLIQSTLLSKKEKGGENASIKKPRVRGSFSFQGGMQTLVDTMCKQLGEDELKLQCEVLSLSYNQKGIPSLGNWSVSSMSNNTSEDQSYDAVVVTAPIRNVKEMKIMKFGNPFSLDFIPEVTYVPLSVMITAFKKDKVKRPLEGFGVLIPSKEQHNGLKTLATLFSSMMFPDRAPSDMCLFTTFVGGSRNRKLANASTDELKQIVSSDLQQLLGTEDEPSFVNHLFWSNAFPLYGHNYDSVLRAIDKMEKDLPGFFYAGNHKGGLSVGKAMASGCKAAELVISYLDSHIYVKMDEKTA

PPO2 R128I ΔG210 = target: T2, PPO2 R128I ΔG210 (Amaranthus tuberculatus, UniProt Q0NZW9, DEL210-210/R128I); assay: biochemical; assay type: biochemical
T2 sequence (Q0NZW9 with tags, fused parts or gaps R128I/DEL210-210): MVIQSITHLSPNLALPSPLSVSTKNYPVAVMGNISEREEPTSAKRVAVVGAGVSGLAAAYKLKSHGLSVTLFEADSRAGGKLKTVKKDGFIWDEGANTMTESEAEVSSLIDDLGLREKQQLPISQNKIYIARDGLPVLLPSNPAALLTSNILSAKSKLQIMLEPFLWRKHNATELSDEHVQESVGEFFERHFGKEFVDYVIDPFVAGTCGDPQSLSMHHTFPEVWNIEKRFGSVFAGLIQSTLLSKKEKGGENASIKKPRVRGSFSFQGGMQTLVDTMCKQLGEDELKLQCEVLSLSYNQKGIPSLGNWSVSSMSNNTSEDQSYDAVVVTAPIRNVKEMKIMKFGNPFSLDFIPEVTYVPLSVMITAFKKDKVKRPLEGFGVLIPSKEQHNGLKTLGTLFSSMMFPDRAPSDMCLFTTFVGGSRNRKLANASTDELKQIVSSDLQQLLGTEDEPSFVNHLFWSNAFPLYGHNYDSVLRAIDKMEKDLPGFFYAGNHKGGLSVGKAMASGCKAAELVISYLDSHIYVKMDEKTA

[1] = target: T3, PPO2 R128M ΔG210 in Escherichia coli hemG (Amaranthus tuberculatus, UniProt Q0NZW9, DEL210-210/R128M, cells depend on it); assay type: cell-based; conditions: read-out: IC50 (E. coli hemG growth)
T3 sequence (Q0NZW9 with tags, fused parts or gaps R128M/DEL210-210): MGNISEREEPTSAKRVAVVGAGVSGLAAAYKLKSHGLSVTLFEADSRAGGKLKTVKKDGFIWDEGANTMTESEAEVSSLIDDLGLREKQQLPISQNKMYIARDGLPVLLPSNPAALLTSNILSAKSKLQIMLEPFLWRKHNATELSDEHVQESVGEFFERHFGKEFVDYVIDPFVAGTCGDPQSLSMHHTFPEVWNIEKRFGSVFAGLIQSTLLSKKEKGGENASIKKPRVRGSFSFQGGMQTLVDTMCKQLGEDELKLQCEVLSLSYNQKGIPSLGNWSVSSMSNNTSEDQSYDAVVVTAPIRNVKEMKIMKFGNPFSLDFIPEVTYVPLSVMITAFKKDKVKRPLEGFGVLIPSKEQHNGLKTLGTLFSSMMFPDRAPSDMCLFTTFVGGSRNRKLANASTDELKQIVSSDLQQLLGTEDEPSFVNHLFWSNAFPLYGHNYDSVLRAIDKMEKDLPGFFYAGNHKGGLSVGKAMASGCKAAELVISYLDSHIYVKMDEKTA

[2] = target: T4, PPO2 R128C ΔG210 in Escherichia coli hemG (Amaranthus tuberculatus, UniProt Q0NZW9, DEL210/R128C, cells depend on it); assay type: cell-based; conditions: read-out: IC50 (E. coli hemG growth)
T4 sequence (Q0NZW9 with tags, fused parts or gaps R128C/DEL210): T3 sequence (Q0NZW9 with tags, fused parts or gaps R128M/DEL210-210) with M98C

[3] = target: T5, PPO2 R128H ΔG210 in Escherichia coli hemG (Amaranthus tuberculatus, UniProt Q0NZW9, DEL210/R128H, cells depend on it); assay type: cell-based; conditions: read-out: IC50 (E. coli hemG growth)
T5 sequence (Q0NZW9 with tags, fused parts or gaps R128H/DEL210): T2 sequence (Q0NZW9 with tags, fused parts or gaps R128I/DEL210-210) with I128H

CS(=O)(=O)NC(=O)c1cc(Oc2ccc(C(F)(F)F)cc2Cl)ccc1[N+](=O)[O-] [Fomesafen, fomesafen] gave a pIC50 (PPO2 G399A) of under 5.00 and a pIC50 (PPO2 R128I ΔG210) of under 5.00.
Work on CCOC(=O)C(C)OC(=O)c1cc(Oc2ccc(C(F)(F)F)cc2Cl)ccc1[N+](=O)[O-] (stereo not drawn) [Lactofen, lactofen] yielded a pIC50 [1] of under 5.00, a pIC50 [2] of under 5.00 and a pIC50 [3] of under 5.00. The pIC50 (PPO2 G399A) was 5.80 and the pIC50 (PPO2 R128I ΔG210) was 5.71.
Work on CC(C)N(C)S(=O)(=O)NC(=O)c1cc(-n2c(=O)cc(C(F)(F)F)n(C)c2=O)c(F)cc1Cl [Saflufenacil, saflufenacil] yielded a pIC50 [1] of under 5.00, a pIC50 [2] of under 5.00 and a pIC50 [3] of under 5.00. For the same compound, the pIC50 (PPO2 G399A) was 6.20 and the pIC50 (PPO2 R128I ΔG210) was under 5.00.
C#CCN1C(=O)C(F)(F)Oc2cc(F)c(-n3c(=O)n(C)c(=S)n(C)c3=O)cc21 [Trifludimoxazin, trifludimoxazin] gave a pIC50 [1] of 7.17, a pIC50 [2] of 7.33 and a pIC50 [3] of 7.05. For the same compound, the pIC50 (PPO2 G399A) was 8.93, the pIC50 (PPO2 R128I ΔG210) was 7.00 and the Resistance factor (PPO2 R128I ΔG210) was 405.
